Experimental data as given in ChEMBL document CHEMBL3507680, “University of Dundee, Gates Library screen for HepG2 cell viability”.

assay: Human HepG2 cell viability assay in 384 well format; format: toxicity, cell-based; set-up: dose 125 nL, time 70.5 hour; concentration not given beside the values; settings: HepG2 cells, read-out: Inhibition

SMILES | cytotoxicity at 70.5 h
CC(NC(=O)Cn1cc(C(N)=O)c(-c2ccccc2)n1)C1CC1 (stereo not drawn) | -10%
Cc1c[nH]nc1C1CCCCN1C(=O)CC1(O)CCCCC1 (stereo not drawn) | -8.79%
COc1cccc(CN2CCC3(CCN(c4ncc(C)cn4)C3)C2=O)c1 (stereo not drawn) | -0.0299%
CN(C)c1ccc(C(=O)N(Cc2ccncc2)CC2CCCO2)nn1 (stereo not drawn) | -4.51%
O=C(NCCOc1ncc(Cl)cc1Cl)c1ccncc1F | 0.0766%
CCOC(=O)N1CCN(c2nc(NC)c3ccccc3n2)CC1 | -15.5%
CN(Cc1cccnc1)C1CC2(CCN(C(=O)c3cscn3)CC2)C1 | 8.2%
COc1ccc(C(=O)NS(=O)(=O)c2ccc(C#N)cc2C(F)(F)F)cc1 | -16.9%
CCS(=O)(=O)NCC(=O)N(C1CC1)C1Cc2ccccc2C1 | -9.21%
Cc1nccn1C1CCCN(C(=O)c2ccc3c(c2)nc(C)n3C)C1 (stereo not drawn) | -3.08%
COCC1COCCC12CCN(C(=O)CCc1ccccc1C)CC2 (stereo not drawn) | -5.26%
Cc1noc(C(C)C)c1C(=O)NCC(c1ccsc1)N(C)C (stereo not drawn) | 4.78%
CN(C(=O)c1ccccn1)c1nnc(C2CCOC2)s1 (stereo not drawn) | -7.71%
NC(=O)c1cc(C2CCCN(CCCOc3ccccc3)C2)n[nH]1 (stereo not drawn) | -10.9%
Cc1ccc(CN2Cc3c(C(=O)N4CCOCC4)nn(C)c3C2)s1 | -2.1%
CCN(Cc1ccoc1)C(=O)c1cc(S(N)(=O)=O)c(C)o1 | -5.31%
O=C(Cc1cn2ccsc2n1)N1CCCC(n2cccn2)C1 (stereo not drawn) | -3.32%
CO[C@H]1CN(C(=O)c2ccc(-c3cc[nH]n3)cc2)CC[C@H]1N | -8.35%
O=C(Nc1cccc(CN2CCOC2=O)c1)N1CCSCC1 | -10.5%
Cc1cccc2c1nc(COCC(=O)O)n2-c1ccc(N)nc1 | 9.09%
COC(=O)c1ccc(C)c(N2CCNC2=O)c1 | -2.21%
CC(C)(C)c1noc(CCCC(=O)N2CCNC(=O)C2)n1 | -16.6%
CN(C)CCN1C(=O)CC[C@@H]2[C@H]1CCN2C(=O)c1ccc(C#N)cc1 | -7.83%

SMILES | cytotoxicity at 70.5 h
COc1ccc(C)cc1CN(Cc1ncc(C)o1)C1CCN(C)C1 (stereo not drawn) | 14.5%
CN(CCOc1ccc(Cl)cc1)Cc1ccc(S(=O)(=O)N(C)C)o1 | -2.41%
Cc1cc(C(=O)N[C@H]2COC[C@@H]2N2CCOCC2)c2ccc(F)cc2n1 | -8.8%
COc1ccc(S(=O)(=O)C(C)C(=O)NCCOc2cccc(C)c2)cc1 (stereo not drawn) | -3.65%
CN1CC2(CCN(C(=O)Cc3ccc(O)c(F)c3)CC2)CC1=O | 10.1%
CCc1nc2n(n1)CC(NCCC(=O)Nc1cc(C)on1)CC2 (stereo not drawn) | -6.35%
CC(=O)N1CCCC2(CCN(C(=O)c3nccnc3N)CC2)C1 | 26.1%
O=C1CSC(C(F)(F)F)c2c(O)nn(C3CCCC3)c2N1 (stereo not drawn) | -22.6%
Cc1nonc1CN(C)c1nc(-c2cccnc2)nc2c1CCNC2 | 0.678%
CCc1nnc(CN2CCN(C(=O)c3ccccn3)CC2)o1 | -21.8%
CC(C)Oc1ccc(CNC(=O)c2cc(C(N)=O)cs2)cc1F | -12.2%
CCO[C@H]1C[C@@H](O)C12CCN(C1Cc3ccccc3C1)CC2 | -10.5%
c1ccc(-c2cnc(CN3CCCC3Cn3cncn3)o2)cc1 (stereo not drawn) | -14.6%
CC1CCN(C(=O)c2cc(NC(=O)c3ccccc3)n(C)n2)CC1 | -14.1%
O=C(CN1CCN(c2ncccn2)[C@@H]2CS(=O)(=O)C[C@@H]21)N1CCCCC1 | -1.85%
O=C1CN(C(=O)OCc2ccccc2)CC(O)CN1Cc1ccco1 (stereo not drawn) | 12.1%
c1csc(CN2CCCC3(COCCN(c4cnccn4)C3)C2)c1 (stereo not drawn) | -6.31%
CCNCCOc1ccc(-c2cc(N)nc3[nH]ccc23)cc1 | -10.1%
COc1ccc2c(c1)OC1(CCN(Cc3ccc(C)cc3)CC1)CC2=O | 7.29%
CN1CCC(N(CCc2ccccc2)C(=O)c2cc[nH]c2)CC1 | -7.32%
CNCC(=O)N1CCCC1c1nc(C(C)C)no1 (stereo not drawn) | -7.36%
COc1ccccc1NC(=O)CSC1CCc2ccccc2NC1=O (stereo not drawn) | -10.1%
O=C(NCc1ccncc1)N(Cc1ccccc1F)C1CC1 | 13%

SMILES | cytotoxicity at 70.5 h
COc1ccc(C(C)N(C)Cc2nc3c(cnn3C)c(=O)[nH]2)cc1 (stereo not drawn) | -8.42%
O=C(NCc1cccnc1)[C@H]1C[C@@H]2CCN(c3ccncn3)C[C@H]2O1 | -5.01%
c1cc(-c2nnc([C@H]3CCN(C4CCOCC4)C3)o2)ccn1 | 2.55%
O=C(c1ccc[nH]1)N1Cc2nccn2CC(Cn2ncccc2=O)C1 (stereo not drawn) | -6.79%
COCC1CN(S(=O)(=O)C2CC2)Cc2ncn(CC3CC3)c21 (stereo not drawn) | -1.47%
COc1cccc2c1OCC(CNc1ccc(C)nn1)C2 (stereo not drawn) | -3.11%
CCNC(=O)C1CCN(Cn2nc(-c3ccc(F)cc3)oc2=O)CC1 | -13.2%
CCNC(=O)COc1ccccc1N1CCCC(C)C1 (stereo not drawn) | -1.31%
CCN1CCn2c(-c3cccc(F)c3)cnc2C12CCN(C(C)=O)CC2 | 2.55%
Cc1nccn1C1CCCN(C(=O)c2ccc3c(c2)COC3)C1 (stereo not drawn) | -3.92%
N#Cc1c(F)cccc1NCCCOCC1CCOCC1 | -3.66%
COc1ncccc1-c1nc(-c2ccccn2)nn1C1CCS(=O)(=O)C1 (stereo not drawn) | -7.2%
CC(C)(NC(=O)C1CCN(C2CCCCC2)CC1)c1nnc(N)s1 | 1.76%
CCCn1ccnc1CN1CC[C@@H](NC(=O)c2cccnc2)[C@H](O)C1 | -16.3%
CC(C)C[C@H](NC(=O)Cc1csc(-c2cccc(Cl)c2)n1)C(=O)O | 19.2%
COc1ccccc1C(=O)N(Cc1nc(C)cs1)CC1CCCO1 (stereo not drawn) | 22.1%
CCOc1cc(CNCc2ncc[nH]2)c(Cl)cc1OC(C)C | 20.6%
CN(CCc1cccs1)C(=O)Nc1cccc(S(C)(=O)=O)c1 | -2.36%
CCCc1nc(C)c(C(=O)NCCNc2ncccn2)s1 | -6.59%
COC[C@@H]1CCC[C@]12CN(S(=O)(=O)c1cn(C)cn1)CCO2 | -6.65%
CCc1nc(CN2CCCC2c2c(C)nn(C)c2OC)no1 (stereo not drawn) | -3.81%
CC1CCCN(C(=O)NCCCn2cncn2)C1 (stereo not drawn) | -4.06%
Cn1nnc2c1C(COCC1CC1)CN(C(=O)Cc1cccs1)C2 (stereo not drawn) | -19.3%

SMILES | cytotoxicity at 70.5 h
COCCN1CCn2c(nc3cc(C(=O)NC(C)C)ccc32)C1 | -6.96%
Cc1ccc(S(=O)(=O)N2CCC(N3CCCCC3)CC2)cc1C | 5.06%
COCC(NC(=O)NCc1cccc(C#N)c1)c1ccco1 (stereo not drawn) | -2.38%
Cc1cc(-c2cnn(CCNC(=O)c3cnn(C)c3)c2C2CC2)on1 | -2.33%
Cc1noc(C2(C)CCCN(C(=O)C(C)C)C2)n1 (stereo not drawn) | -0.687%
CCOC(=O)N1CC(=O)N(CCc2ccccc2)CC(O)C1 (stereo not drawn) | 5.59%
CCc1ccc(C(=O)N(c2cccnc2)C(C)C)cc1S(C)(=O)=O | -8%
Cc1cc(NC(=O)CN2CCn3c(nnc3C3CC3)C2)no1 | -5.22%
CCC(SC)C(=O)N1CCC(n2ccnn2)CC1 (stereo not drawn) | -7.09%
CCc1nncn1CCNC(=O)N1CCCC(Cc2nccn2C)C1 (stereo not drawn) | 32.8%
CC(NC(=O)C(C)(C)C)c1cc(O)nc(-c2cccnc2)n1 (stereo not drawn) | -5.99%
Cc1cc(CNc2ccc(-c3nc(C4CC4)no3)cn2)no1 | -4.31%
Cc1cc(C[C@@H]2CCC[C@H]2NCc2c[nH]nc2-c2ccccc2)on1 | 20.7%
Cc1cnc(N2CCOC3(COCCN(c4nccs4)C3)C2)nc1 (stereo not drawn) | -4.6%
N#CC(NC(=O)CCC(=O)NC1CCCC1)c1ccc(F)cc1F (stereo not drawn) | -11.2%
O=C(NCc1nn(-c2ccccc2)c2c1CCC2)NC1CCOCC1 | -0.276%
COCC1CN(C(=O)Cc2ccc(F)cc2)Cc2ccnn2C1 (stereo not drawn) | -5.52%
O=C1Nc2ccccc2CC12CCCN2Cc1cccnc1 (stereo not drawn) | -2.78%
CC(C)=CCN1CCN(S(=O)(=O)c2cn(C)cn2)[C@H]2CS(=O)(=O)C[C@H]21 | 48.8%
CN1Cc2nc[nH]c2C[C@H]1C(=O)NC1CCCCC1 | -3.45%
COCC(=O)N1CC[C@@H]2CN(Cc3ccccc3)S(=O)(=O)[C@@H]2CC1 | -5.37%
CCn1cnnc1CN(C)C(=O)C1CCC(=O)N(CC2CCCCC2)C1 (stereo not drawn) | -6.42%
CN1CCCC1c1ccc(N2CCOCC2)cn1 (stereo not drawn) | -16.8%

SMILES | cytotoxicity at 70.5 h
COc1c(C2CCCN2Cc2nc(C)c(C)o2)c(C)nn1C (stereo not drawn) | -7.8%
Cc1noc(C)c1C(=O)NCc1ccc(N2CCC(C)CC2)nc1 | 1.58%
CNC(=O)C1CCCN(C(=O)C2CCC2)C1 (stereo not drawn) | -11.6%
Cc1nn(CC(O)CN2CCc3ccccc3C2)c(=O)c2ccccc12 (stereo not drawn) | -17.4%
Fc1cc(Oc2ccc(C(F)(F)F)cn2)cc(F)c1CN1CCCC1 | -4.12%
O=C(NC[C@H]1Cn2c(-c3ccccc3)cnc2CO1)C1CCOCC1 | -9.93%
Fc1cnc(N2CC3(CCN(CC4CC4)C3)C2)nc1 | -0.963%
COc1ccccc1CN1CC(OC)CN(C(=O)CC(C)C)CC1=O (stereo not drawn) | -5.03%
CCNC(=O)NC(=O)CNC(C)(C)c1ccc2c(c1)OCO2 | -4.4%
Cc1ncccc1OC1(C(=O)NCCCN2CCOCC2)CCNCC1 | -11.7%
Cc1nc(-c2cnn(C)c2)nc2c1CN(C(=O)c1cccn1C)CC2 | 1.91%
CCCOc1cc(CNC(=O)Nc2ccc(C)cc2)ccn1 | -2.77%
Cc1ccc(CN2CCCC23CCN(S(=O)(=O)c2ccccc2)C3)o1 (stereo not drawn) | -7.71%
Cc1c(C(C)N)cnn1-c1cccc2ccccc12 (stereo not drawn) | -5.48%
CC(C)CN1Cc2cccc(NC(=O)Cc3ccon3)c2C1 | -4.05%
Cc1cc(NC(=O)CN(C)C2CCCN(c3cccnn3)C2)on1 (stereo not drawn) | 23.1%
CCn1nc(CC(C)C)cc1C(=O)N1CC(N2CCCCC2C)C1 (stereo not drawn) | -2.38%
COc1ccc(-c2nc(CN3CCCC3Cn3cccn3)no2)cc1 (stereo not drawn) | -0.173%
CCCc1noc(CN2CCN(CCO)CC2)n1 | -1.1%
CCCc1cc(NC2CCc3nc(C)nn3C2)n2ncnc2n1 (stereo not drawn) | -112%
Cc1cnn(CC2CCN(CC(O)COc3ccc(F)cc3)CC2)c1 (stereo not drawn) | 26.5%
